Reference: patent US20030180399A1, “Therapeutic/edible compositions comprising herbal ingredients and methods for treating hyperglycemia” (COUNCIL OF SCIENTIFIC & INDUSTRIAL RESEARCH, priority 2002, published 2003)

Key:
[1] = tested on: STZ induced diabetic model; experiment: Plasma glucose level in streptozocin (STZ) induced diabetic rats, 15 days treatment; type: in vivo, Male albino rats of wistar strains; settings: n=6, glibenclamide 3 mg/Kg
Experimental: Male albino rats of wistar strains (150-200 g) were used throughout the studies. Rats were divided into eleven groups of each containing 6 rats. These animals were randomly assigned to the following groups which include (A) control group, (B) standard group (glibenclamide, 3 mg/Kg) and (C) test groups (F1-F9). Diabetes was induced by injecting streptozocin (STZ) in a dose of 65 mg/kg intra venous in 0.1M citrate buffer. Rats were kept fasted overnight but were given water ad libitum. After 48 hours of STZ injection, blood samples were taken from tail vein of conscious rats. The blood was centrifuged at 5000 rpm for 10 minutes in an eppendorf tubes containing EDTA (1 mg/ml of blood). Plasma glucose estimations were done by glucose oxidase method by using Auto blood analyzer (Techinicon RA-100, Bayer Diagnostics, Ireland). Animals with blood glucose level more than 250% of the fasting level were considered to be diabetic and were used for the experiment. Group A was given normal saline, group B was given glibenclamide and various groups of C were given herbal compositions for 15 days at least once in day. Blood was collected from tail veins of all the rats after 7 days and 15 days of treatment and glucose levels were estimated as described previously (Table 2). The statistical analysis was performed using Prism program (Graphpad software). […]

[2] = tested on: oral glucose tolerance in rats; experiment: Glucose Tolerance Test (GTT) in rats; type: in vivo, Male albino rats of wistar strains; settings: rats loaded with glucose 5 g/kg 2 hours after dosing; P<0.05; glibenclamide 3 mg/Kg
Text: Brief description of the accompanying drawings: Figure-1. Describes the effect of herbal formulation and glibenclamide on oral glucose tolerance tests in rats. From the above STZ induced diabetic model the composition 1 has chosen for GTT study. Male albino rats of wistar strains (150-200 g) were used. They were divided into three groups each containing 6 rats. They were randomly assigned A) control group B) standard group (glibenclamide) C) test group. Group A was given saline, group B was given glibenclamide (3 mg/Kg) and group C was given test compositions. After 2 hours all rats were loaded with glucose with a dose of 5 g/kg. Blood samples were taken from tail vein of conscious rats for every 30 minutes up to 3 hours. Plasma glucose estimations were done by glucose oxidase method by using Auto Blood Analyzer as described in FIG. 1. The statistical analysis was performed using Prism program (Graphpad software). Annova with post Newman—Keul test with P values was used to compare the treatment efficacy between the test groups.

COc1ccc(Cl)cc1C(=O)NCCc1ccc(S(=O)(=O)NC(=O)NC2CCCCC2)cc1 [Glibenclamide]
% reduction in glucose levels ([1]; Day 7th of treatment): 27 ± 2.6%
% reduction in glucose levels ([1]; Day 15th of treatment): 38 ± 2.9%
glucose tolerance compared to control group [2]: increased
